Measured values published in the supplement of paper PMC8024199.
± gives the standard deviation of the averaged measurements.

Columns and labels:
Assay in all cases: drug sensitivity score (DSS) (DSS score); higher = more sensitive (stronger growth inhibition); extreme values may be limits of the assay
[1] = system: Ba/F3 P210-BCR-ABL1 RUNX1-/- (mouse)
Summary of the method: (§1)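 Mouse Ba/F3 cells carrying P210-BCR-ABL1, CRISPR/Cas9-edited at runx1 exon 4 or edited-control clones, were screened against a 528-compound library on pre-printed 384-well plates. Each compound ran at five concentrations spanning a 10,000-fold range, with 10,000 cells per well in RPMI with 10% FBS for 72 h at 37 °C and 5% CO2. CellTiter-Glo luminescence was scaled between vehicle and positive-control wells. A drug sensitivity score summarised each dose-response, averaged over two replicates.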

[2] = system: Ba/F3 P210-BCR-ABL1 RUNX1-/mut (mouse)
Summary of the method: as §1

[3] = system: Ba/F3 P210-BCR-ABL1 RUNX1wt/wt control (mouse)
Summary of the method: as §1

SMILES	drug sensitivity score [1]	drug sensitivity score [2]	drug sensitivity score [3]
CCN(CC)CCN(Cc1ccc(-c2ccc(C(F)(F)F)cc2)cc1)C(=O)Cn1c(SCc2ccc(F)cc2)nc(=O)c2c1CCC2 [Darapladib]	1.9 ± 0.14	2.65 ± 3.2	0
CC[C@@](C)(Nc1ccnc(-c2c[nH]c3ncccc23)n1)C(=O)NCC(F)(F)F [Decernotinib]	0.5 ± 0.28	0	0.55 ± 0.21
CC(=O)N(O)CCCCCNC(=O)CCC(=O)N(O)CCCCCNC(=O)CCC(=O)N(O)CCCCCN [Deferoxamine]	6.9 ± 0.71	6.6 ± 1.4	0.9 ± 0.99
C[C@H]1O[C@@H](O[C@H]2[C@@H](O)C[C@H](O[C@H]3[C@@H](O)C[C@H](O[C@H]4CC[C@@]5(C)[C@H](CC[C@@H]6[C@@H]5C[C@@H](O)[C@]5(C)[C@@H](C7=CC(=O)OC7)CC[C@]65O)C4)O[C@@H]3C)O[C@@H]2C)C[C@H](O)[C@@H]1O [Digoxin]	0	0.05 ± 0.071	0
CCc1cnn2c(NCc3ccc[n+]([O-])c3)cc(N3CCCC[C@H]3CCO)nc12 [Dinaciclib]	19.6 ± 2.3	19.9 ± 0.35	18.6 ± 0.78
Cc1ccc(-n2nc(C(C)(C)C)cc2NC(=O)Nc2ccc(OCCN3CCOCC3)c3ccccc23)cc1 [Doramapimod]	3.9 ± 0.57	2.85 ± 1.5	0
C[C@H](Nc1ncnc2nc[nH]c12)c1cc2cccc(Cl)c2c(=O)n1-c1ccccc1 [Duvelisib]	2.6 ± 0.99	2.35 ± 3.3	0
Cc1ccc(NS(=O)(=O)c2cccc(C#N)c2)c2[nH]cc(C#N)c12 [E7820]	2 ± 0.99	5.45 ± 2	0.35 ± 0.21
Cc1cc(Nc2cc(N3CCN(C)CC3)nc(/C=C/c3ccccc3)n2)n[nH]1 [ENMD-2076]	9.4 ± 0.28	8.45 ± 0.35	5.5 ± 0.85
Cc1cc(C)c(CNC(=O)c2cc(-c3ccc(CN4CCOCC4)cc3)cc3c2cnn3C2CCCC2)c(=O)[nH]1 [EPZ-5687]	0.5 ± 0.71	0.9 ± 1.3	0
NC(=O)/C(=C/n1cnc(-c2cc(C(F)(F)F)cc(C(F)(F)F)c2)n1)c1cncnc1 [Eltanexor]	27.8 ± 0.14	27.2 ± 0.35	19.8 ± 0.99
CC(C)(O)CNc1nc(Nc2ccnc(C(F)(F)F)c2)nc(-c2cccc(C(F)(F)F)n2)n1 [Enasidenib]	0.4 ± 0.14	0.55 ± 0.78	0
COC(=O)N[C@@H](C)CNc1nccc(-c2cn(C(C)C)nc2-c2cc(Cl)cc(NS(C)(=O)=O)c2F)n1 [Encorafenib]	1.35 ± 0.071	2.15 ± 0.64	0.05 ± 0.071
C[C@@H]1CN(C(=O)c2ccc(NC(=O)c3cc(O[C@H](C)c4c(Cl)ccc(F)c4Cl)c(N)nn3)cc2)C[C@H](C)N1 [Ensartinib]	2.15 ± 0.92	0.2 ± 0.28	0
c1cn2cc(-c3ccc4cn[nH]c4c3)nc(Nc3ccc(N4CCOCC4)cc3)c2n1 [Entospletinib]	1.95 ± 1.3	1.35 ± 1.9	0
CN1CCN(c2ccc(C(=O)Nc3n[nH]c4ccc(Cc5cc(F)cc(F)c5)cc34)c(NC3CCOCC3)c2)CC1 [Entrectinib]	0.25 ± 0.35	0.65 ± 0.92	0
CNC(=O)c1ccc(N2C(=S)N(c3ccc(C#N)c(C(F)(F)F)c3)C(=O)C2(C)C)cc1F [Enzalutamide]	1.15 ± 1.6	1.05 ± 1.5	0.3 ± 0.14
NS(=O)(=O)NCCNc1nonc1/C(=N/O)Nc1ccc(F)c(Br)c1 [Epacadostat]	1.05 ± 1.2	0.7 ± 0.99	0
COc1cccc2c1C(=O)c1c(O)c3c(c(O)c1C2=O)C[C@@](O)(C(=O)CO)C[C@@H]3O[C@H]1C[C@H](N)[C@@H](O)[C@H](C)O1 [Epirubicin]	24.9 ± 0.35	18.6 ± 3.5	13.1 ± 0.21
CCOc1ccccc1-n1c(C(C)N2CCN(C(=O)COc3ccc(Cl)cc3)CC2)nc2ccccc2c1=O (stereo not given) [Erastin]	11.2 ± 1.1	8.45 ± 5.9	0
COc1cc(OC)cc(N(CCNC(C)C)c2ccc3ncc(-c4cnn(C)c4)nc3c2)c1 [Erdafitinib]	1.5 ± 0.14	0	0
C=C1C[C@@H]2CC[C@@]34C[C@H]5O[C@H]6[C@@H](O3)[C@H]3O[C@H](CC[C@@H]3O[C@H]6[C@H]5O4)CC(=O)C[C@@H]3[C@@H](OC)[C@@H](C[C@H](O)CN)O[C@H]3C[C@H]3O[C@@H](CC[C@@H]1O2)C[C@@H](C)C3=C [Eribulin]	25.9 ± 1.2	24.6 ± 0.85	17.4 ± 0.14
CCn1c(=O)c(-c2ccc(Cl)cc2Cl)cc2cnc(Nc3ccc(N4CCNCC4)c(F)c3)nc21 [FRAX486]	23.2 ± 1.2	16.4 ± 0.42	8.95 ± 0.64

SMILES	drug sensitivity score [1]	drug sensitivity score [2]	drug sensitivity score [3]
Cc1cnc(Nc2ccc(OCCN3CCCC3)cc2)nc1Nc1cccc(S(=O)(=O)NC(C)(C)C)c1 [Fedratinib]	11.7 ± 2	10.4 ± 2.7	5.8
CON(C)C(=O)N1N=C(c2cc(F)ccc2F)S[C@@]1(CCCN)c1ccccc1 [Filanesib]	19.6 ± 2.2	14.95 ± 0.071	7.85 ± 0.35
O=C(Nc1nc2cccc(-c3ccc(CN4CCS(=O)(=O)CC4)cc3)n2n1)C1CC1 [Filgotinib]	1.5 ± 1.7	1.8 ± 2.5	0
COc1cc(Nc2ncc(F)c(Nc3ccc4c(n3)N(COP(=O)(O)O)C(=O)C(C)(C)O4)n2)cc(OC)c1OC [Fostamatinib]	1.4 ± 0.14	0.45 ± 0.64	0.45 ± 0.49
CC1(C)OCCn2c1nc1c(N3CCOCC3)nc(-c3cnc(N)nc3)nc12 [GDC-0084]	9.3 ± 0.14	10.3 ± 0.85	4.8
O=C(NOCCO)c1ccc2cncn2c1Nc1ccc(I)cc1F [GDC-0623]	10.8 ± 8.1	3.7 ± 3.7	0.55 ± 0.78
C[C@H]1CN(C2COC2)CCN1c1ccc(Nc2cc(-c3ccnc(N4CCn5c(cc6c5CC(C)(C)C6)C4=O)c3CO)cn(C)c2=O)nc1 [GDC-0853]	0	0	0
O[C@H](C[C@H]1c2c(F)cccc2-c2cncn21)[C@H]1CC[C@H](O)CC1 [GDC-0919]	0	0.05 ± 0.071	1.2 ± 0.28
CNc1nc(Nc2cn(C(C)(C)C#N)nc2C)ncc1C(F)(F)F [GNE-0877]	0	0	0
CCNc1nc(Nc2cc(F)c(C(=O)N3CCOCC3)cc2OC)ncc1C(F)(F)F [GNE-7915]	0	0	0
CCCc1cc(C)[nH]c(=O)c1CNC(=O)c1cc(-c2ccnc(N3CCN(C)CC3)c2)cc2c1cnn2C(C)C [GSK343]	0.75 ± 0.78	1.05 ± 1.5	0
CCCOc1ccn2c(C(C)=O)cc(-c3ccccc3S(C)(=O)=O)c2c1 [GSK2801]	0.1 ± 0.14	2.3 ± 3.2	0
CCOC(=O)CCNc1cc(N2CCc3ccccc3CC2)nc(-c2ccccn2)n1 [GSK-J4]	5.1 ± 4.8	4.5 ± 3.8	2.45 ± 0.78
C[C@@H]1C=C2C(=O)O[C@@H]3CC[C@H](C1)[C@]23O [Galiellalactone]	12 ± 3.1	9.7 ± 4.1	5.1
Cc1cccc(-c2nn3c(c2-c2ccnc4ccc(C(N)=O)cc24)CCC3)n1 [Galunisertib]	0	0	0
Cc1cc(Nc2cc(CN3CCOCC3)c3nc(C)c(Cc4ccc(Cl)cc4F)n3n2)n[nH]1 [Gandotinib]	4.8 ± 0.71	4.9 ± 1.6	2.35 ± 0.21
CC(C)c1cc(-c2n[nH]c(=O)n2-c2ccc3c(ccn3C)c2)c(O)cc1O [Ganetespib]	24.8 ± 3.4	23.6 ± 2.2	19.1 ± 0.21
CN(C)C1CCN(C(=O)c2ccc(NC(=O)Nc3ccc(-c4nc(N5CCOCC5)nc(N5CCOCC5)n4)cc3)cc2)CC1 [Gedatolisib]	13.6 ± 0.35	15.2 ± 0.92	4.55 ± 0.071
CCc1nc(C(N)=O)c(Nc2ccc(N3CCC(N4CCN(C)CC4)CC3)c(OC)c2)nc1NC1CCOCC1 [Gilteritinib]	6.2 ± 2	8.4 ± 2.5	3.25 ± 0.78
CCN(CC)Cc1ccc2cc(COC(=O)Nc3ccc(C(=O)NO)cc3)ccc2c1 [Givinostat]	13.4 ± 0.28	12.7 ± 0.57	7.9 ± 0.99
CN1CC[C@@H](NC(=O)Nc2ccc(C#N)cc2)C[C@@H]1c1nc2ccccc2[nH]1 [Glasdegib]	0	0	0.05 ± 0.071
COCCNCc1ccc(-c2cc3nccc(Oc4ccc(NC(=S)NC(=O)Cc5ccc(F)cc5)cc4F)c3s2)nc1 [Glesatinib]	7.4 ± 0.14	3.55 ± 1.1	0
